According to patent US8530667B2, “Herbicides” (Syngenta Limited, priority 2007, dated 2013):

Key:
Format in all cases: in vivo
[1] = test system: Setaria faberi (SETFA); assay: Example B post-emergence herbicidal activity, glasshouse pot test; details: 312 h, rate 250 g/ha, evaluated after 13 days, read-out: Post-emergence activity SETFA (100=total damage to plant; 0=no damage to plant)
Description: (§1) Seeds of a variety of test species were sown in standard soil in pots. After cultivation for one day (pre-emergence) or after 8 days cultivation (post-emergence) under controlled conditions in a glasshouse (at 24/16° C., day/night; 14 hours light; 65% humidity), the plants were sprayed with an aqueous spray solution derived from the formulation of the technical active ingredient in acetone/water (50:50) solution containing 0.5% Tween 20 (polyoxyethelyene sorbitan monolaurate, CAS RN 9005-64-5). The test plants were then grown in a glasshouse under controlled conditions in a glasshouse (at 24/16° C., day/night; 14 hours light; 65% humidity) and watered twice daily. After 13 days for pre and post-emergence, the test was evaluated (100=total damage to plant; 0=no damage to plant). Alopecurus myosuroides (ALOMY), Avena fatua (AVEFA), Setaria faberi (SETFA), Echinochloa crus-galli (ECHCG) and Amaranthus retoflexus (AMARE)

[2] = test system: Echinochloa crus-galli (ECHCG); assay: as above; details: 312 h, rate 250 g/ha, evaluated after 13 days, read-out: Post-emergence activity ECHCG (100=total damage to plant; 0=no damage to plant)
Description: as §1

[3] = test system: Alopecurus myosuroides (ALOMY); assay: as above; details: 312 h, rate 250 g/ha, evaluated after 13 days, read-out: Post-emergence activity ALOMY (100=total damage to plant; 0=no damage to plant)
Description: as §1

[4] = test system: Amaranthus retoflexus (AMARE); assay: as above; details: Amaranthus retroflexus, 312 h, rate 250 g/ha, evaluated after 13 days, read-out: Post-emergence activity AMARE (100=total damage to plant; 0=no damage to plant)
Description: as §1

[5] = test system: Avena fatua (AVEFA); assay: as above; details: 312 h, rate 250 g/ha, evaluated after 13 days, read-out: Post-emergence activity AVEFA (100=total damage to plant; 0=no damage to plant)
Description: as §1

[6] = test system: Setaria faberi (SETFA); assay: Example B pre-emergence herbicidal activity, glasshouse pot test; details: 312 h, Rate 250 g/ha, evaluated after 13 days, read-out: Pre-Emergence Activity SETFA (100=total damage to plant; 0=no damage to plant)
Description: as §1

[7] = test system: Echinochloa crus-galli (ECHCG); assay: as above; details: 312 h, Rate 250 g/ha, evaluated after 13 days, read-out: Pre-Emergence Activity ECHCG (100=total damage to plant; 0=no damage to plant)
Description: as §1

[8] = test system: Alopecurus myosuroides (ALOMY); assay: as above; details: 312 h, Rate 250 g/ha, evaluated after 13 days, read-out: Pre-Emergence Activity ALOMY (100=total damage to plant; 0=no damage to plant)
Description: as §1

[9] = test system: Amaranthus retoflexus (AMARE); assay: as above; details: Amaranthus retroflexus, 312 h, Rate 250 g/ha, evaluated after 13 days, read-out: Pre-Emergence Activity AMARE (100=total damage to plant; 0=no damage to plant)
Description: as §1

[10] = test system: Avena fatua (AVEFA); assay: as above; details: 312 h, Rate 250 g/ha, evaluated after 13 days, read-out: Pre-Emergence Activity AVEFA (100=total damage to plant; 0=no damage to plant)
Description: as §1

Compound: Cc1sc(-c2ccc(OC(F)F)cc2)nc1C1C(=O)[C@@H]2[C@H](C1=O)[C@H]1CC[C@@H]2O1 (stereo partly shown) [Compound T41]
- pest or weed control at 250 g/ha [1]: 100%
- pest or weed control at 250 g/ha [2]: 100%
- pest or weed control at 250 g/ha [3]: 100%
- pest or weed control at 250 g/ha [4]: 0%
- pest or weed control at 250 g/ha [5]: 90%
- pest or weed control at 250 g/ha [6]: 100%
- pest or weed control at 250 g/ha [7]: 100%
- pest or weed control at 250 g/ha [8]: 100%
- pest or weed control at 250 g/ha [9]: 0%
- pest or weed control at 250 g/ha [10]: 30%

Compound: Cc1sc(-c2ccc([S+](C)[O-])cc2)nc1C1C(=O)[C@@H]2[C@H](C1=O)[C@H]1CC[C@@H]2O1 (stereo partly shown) [Compound T49]
- pest or weed control at 250 g/ha [1]: 90%
- pest or weed control at 250 g/ha [2]: 100%
- pest or weed control at 250 g/ha [3]: 50%
- pest or weed control at 250 g/ha [4]: 0%
- pest or weed control at 250 g/ha [5]: 30%
- pest or weed control at 250 g/ha [6]: 90%
- pest or weed control at 250 g/ha [7]: 70%
- pest or weed control at 250 g/ha [8]: 20%
- pest or weed control at 250 g/ha [9]: 0%
- pest or weed control at 250 g/ha [10]: 0%

Compound: Cc1sc(-c2ccc(OC(F)F)cc2F)nc1C1C(=O)[C@@H]2[C@H](C1=O)[C@H]1CC[C@@H]2O1 (stereo partly shown) [Compound T54]
- pest or weed control at 250 g/ha [1]: 100%
- pest or weed control at 250 g/ha [2]: 100%
- pest or weed control at 250 g/ha [3]: 100%
- pest or weed control at 250 g/ha [4]: 40%
- pest or weed control at 250 g/ha [5]: 100%
- pest or weed control at 250 g/ha [6]: 100%
- pest or weed control at 250 g/ha [7]: 100%
- pest or weed control at 250 g/ha [8]: 90%
- pest or weed control at 250 g/ha [9]: 0%
- pest or weed control at 250 g/ha [10]: 100%

Compound: Cc1sc(-c2ccc(Br)cc2F)nc1C1C(=O)[C@@H]2[C@H](C1=O)[C@H]1CC[C@@H]2O1 (stereo partly shown) [Compound T36]
- pest or weed control at 250 g/ha [1]: 100%
- pest or weed control at 250 g/ha [2]: 100%
- pest or weed control at 250 g/ha [3]: 100%
- pest or weed control at 250 g/ha [4]: 30%
- pest or weed control at 250 g/ha [5]: 100%
- pest or weed control at 250 g/ha [6]: 100%
- pest or weed control at 250 g/ha [7]: 100%
- pest or weed control at 250 g/ha [8]: 90%
- pest or weed control at 250 g/ha [9]: 0%
- pest or weed control at 250 g/ha [10]: 80%

Compound: Cc1sc(-c2ccc(Cl)c(Cl)c2)nc1C1C(=O)[C@@H]2[C@H](C1=O)[C@H]1CC[C@@H]2O1 (stereo partly shown) [Compound T31]
- pest or weed control at 250 g/ha [1]: 70%
- pest or weed control at 250 g/ha [2]: 80%
- pest or weed control at 250 g/ha [3]: 60%
- pest or weed control at 250 g/ha [4]: 0%
- pest or weed control at 250 g/ha [5]: 50%
- pest or weed control at 250 g/ha [6]: 90%
- pest or weed control at 250 g/ha [7]: 90%
- pest or weed control at 250 g/ha [8]: 60%
- pest or weed control at 250 g/ha [9]: 20%
- pest or weed control at 250 g/ha [10]: 70%

Compound: CC(=O)OC1=C(c2nc(-c3ccc(OC(F)F)cc3F)sc2C)C(=O)[C@H]2[C@@H]1[C@@H]1CC[C@H]2O1 (racemic) [Compound P10]
- pest or weed control at 250 g/ha [1]: 100%
- pest or weed control at 250 g/ha [2]: 100%
- pest or weed control at 250 g/ha [3]: 100%
- pest or weed control at 250 g/ha [4]: 20%
- pest or weed control at 250 g/ha [5]: 100%
- pest or weed control at 250 g/ha [6]: 100%
- pest or weed control at 250 g/ha [7]: 100%
- pest or weed control at 250 g/ha [8]: 90%
- pest or weed control at 250 g/ha [9]: 0%
- pest or weed control at 250 g/ha [10]: 100%

Compound: Cc1sc(-c2ccc(OC(F)F)cc2Cl)nc1C1=C(OC(=O)C(C)(C)C)[C@@H]2[C@H](C1=O)[C@H]1CC[C@@H]2O1 (racemic) [Compound P9]
- pest or weed control at 250 g/ha [1]: 100%
- pest or weed control at 250 g/ha [2]: 100%
- pest or weed control at 250 g/ha [3]: 100%
- pest or weed control at 250 g/ha [4]: 0%
- pest or weed control at 250 g/ha [5]: 90%
- pest or weed control at 250 g/ha [6]: 90%
- pest or weed control at 250 g/ha [7]: 90%
- pest or weed control at 250 g/ha [8]: 70%
- pest or weed control at 250 g/ha [9]: 0%
- pest or weed control at 250 g/ha [10]: 50%

Compound: Cc1sc(-c2cccs2)nc1C1C(=O)[C@@H]2[C@H](C1=O)[C@H]1CC[C@@H]2O1 (stereo partly shown) [Compound T32]
- pest or weed control at 250 g/ha [1]: 70%
- pest or weed control at 250 g/ha [2]: 30%
- pest or weed control at 250 g/ha [3]: 0%
- pest or weed control at 250 g/ha [4]: 0%
- pest or weed control at 250 g/ha [5]: 0%
- pest or weed control at 250 g/ha [6]: 40%
- pest or weed control at 250 g/ha [7]: 0%
- pest or weed control at 250 g/ha [8]: 0%
- pest or weed control at 250 g/ha [9]: 0%
- pest or weed control at 250 g/ha [10]: 0%

Compound: CCc1sc(-c2ccc(Cl)cc2Cl)nc1C1C(=O)[C@@H]2[C@H](C1=O)[C@H]1CC[C@@H]2O1 (stereo partly shown) [Compound T45]
- pest or weed control at 250 g/ha [1]: 100%
- pest or weed control at 250 g/ha [2]: 100%
- pest or weed control at 250 g/ha [3]: 100%
- pest or weed control at 250 g/ha [4]: 0%
- pest or weed control at 250 g/ha [5]: 100%
- pest or weed control at 250 g/ha [6]: 100%
- pest or weed control at 250 g/ha [7]: 100%
- pest or weed control at 250 g/ha [8]: 90%
- pest or weed control at 250 g/ha [9]: 0%
- pest or weed control at 250 g/ha [10]: 60%

Compound: CCc1sc(-c2ccc(OC(F)F)cc2)nc1C1C(=O)[C@@H]2[C@H](C1=O)[C@H]1CC[C@@H]2O1 (stereo partly shown) [Compound T42]
- pest or weed control at 250 g/ha [1]: 100%
- pest or weed control at 250 g/ha [2]: 100%
- pest or weed control at 250 g/ha [3]: 100%
- pest or weed control at 250 g/ha [4]: 0%
- pest or weed control at 250 g/ha [5]: 100%
- pest or weed control at 250 g/ha [6]: 100%
- pest or weed control at 250 g/ha [7]: 90%
- pest or weed control at 250 g/ha [8]: 90%
- pest or weed control at 250 g/ha [9]: 0%
- pest or weed control at 250 g/ha [10]: 30%

Compound: Cc1sc(-c2ccc(Br)cn2)nc1C1=C(OC(=O)C2CC2)[C@@H]2[C@H](C1=O)[C@H]1CC[C@@H]2O1 (racemic) [Compound P6]
- pest or weed control at 250 g/ha [1]: 100%
- pest or weed control at 250 g/ha [2]: 100%
- pest or weed control at 250 g/ha [3]: 90%
- pest or weed control at 250 g/ha [4]: 0%
- pest or weed control at 250 g/ha [5]: 90%
- pest or weed control at 250 g/ha [6]: 70%
- pest or weed control at 250 g/ha [7]: 20%
- pest or weed control at 250 g/ha [8]: 0%
- pest or weed control at 250 g/ha [9]: 0%
- pest or weed control at 250 g/ha [10]: 0%

Compound: CCc1sc(-c2ccc(SC)cc2)nc1C1C(=O)[C@@H]2[C@H](C1=O)[C@H]1CC[C@@H]2O1 (stereo partly shown) [Compound T50]
- pest or weed control at 250 g/ha [1]: 100%
- pest or weed control at 250 g/ha [2]: 100%
- pest or weed control at 250 g/ha [3]: 90%
- pest or weed control at 250 g/ha [4]: 0%
- pest or weed control at 250 g/ha [5]: 90%
- pest or weed control at 250 g/ha [6]: 90%
- pest or weed control at 250 g/ha [7]: 90%
- pest or weed control at 250 g/ha [8]: 40%
- pest or weed control at 250 g/ha [9]: 0%
- pest or weed control at 250 g/ha [10]: 0%

Compound: Cc1sc(-c2ccc(Cl)s2)nc1C1C(=O)[C@@H]2[C@H](C1=O)[C@H]1CC[C@@H]2O1 (stereo partly shown) [Compound T37]
- pest or weed control at 250 g/ha [1]: 90%
- pest or weed control at 250 g/ha [2]: 90%
- pest or weed control at 250 g/ha [3]: 50%
- pest or weed control at 250 g/ha [4]: 0%
- pest or weed control at 250 g/ha [5]: 10%
- pest or weed control at 250 g/ha [6]: 90%
- pest or weed control at 250 g/ha [7]: 40%
- pest or weed control at 250 g/ha [8]: 30%
- pest or weed control at 250 g/ha [9]: 0%
- pest or weed control at 250 g/ha [10]: 0%
